This note sets out measurements from ChEMBL document CHEMBL4219169, “Sulfoximines as potent RORγ inverse agonists” (Bioorg Med Chem Lett, 2018).

A short description of series [1]: Fraction unbound in human plasma at 5 uM incubated for 4 hrs at 37 degC by LC-MS/MS method. It is filed as ADME, cell-free.
Series [2] concerns the target T1, Nuclear receptor ROR-alpha (Homo sapiens, UniProt P35398).
T1 sequence (P35398 whole entry): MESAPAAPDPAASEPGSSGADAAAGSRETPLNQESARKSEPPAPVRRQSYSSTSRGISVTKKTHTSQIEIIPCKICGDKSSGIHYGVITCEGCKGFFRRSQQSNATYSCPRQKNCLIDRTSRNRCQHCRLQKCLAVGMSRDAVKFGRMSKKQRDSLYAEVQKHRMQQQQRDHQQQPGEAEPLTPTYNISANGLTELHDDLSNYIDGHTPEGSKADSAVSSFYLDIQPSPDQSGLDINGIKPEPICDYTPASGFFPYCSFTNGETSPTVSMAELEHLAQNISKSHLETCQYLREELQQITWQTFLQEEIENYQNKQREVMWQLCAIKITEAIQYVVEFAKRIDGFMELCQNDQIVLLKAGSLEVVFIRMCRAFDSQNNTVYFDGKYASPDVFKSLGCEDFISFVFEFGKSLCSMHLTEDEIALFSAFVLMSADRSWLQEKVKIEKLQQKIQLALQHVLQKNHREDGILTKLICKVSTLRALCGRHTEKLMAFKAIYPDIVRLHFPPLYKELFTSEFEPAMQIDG
Nature of the series: Inverse agonist activity at RORalpha (unknown origin) expressed in human HeLa-derived HG5LN cells transfected with the GAL4 DNA-binding domain fused to the RORalpha ligand-binding domain assessed as inhibition of transcriptional activity after 18 hrs by luminescence-based luciferase reporter gene assay. The series is classed as cell-based.

The test system of another series is TK6. Kind of series: Genotoxicity in human-derived p53-competent TK6 cells expressing GADD45a-dependent green fluorescent protein assessed as decrease in cell viability after 48 hrs in presence of Sprague-Dawley rat S9 fraction by FACS analysis. It is filed as toxicity, cell-based. To be noted: s9, 48 h.
The test system of series [3] is Mus musculus. Kind of series: In vivo inverse agonist activity at RORgamma in wild type BALB/c ByJ Rj mouse model of imiquimod-induced skin inflammation model assessed as attenuation of imiquimod-induced epidermal hyperplasia at 0.5 to 6% administered topically twice daily for 7 days dosed 2 hrs before and 6 hrs after imiquimod administration measured on day 8 by hematoxylin and eosin staining-based histological analysis. The series is classed as functional, organism-based.

The test system of series [4] is Mus musculus. Kind of series: In vivo inverse agonist activity at RORgamma in wild type BALB/c ByJ Rj mouse model of imiquimod-induced skin inflammation model assessed as attenuation of imiquimod-induced epidermal hyperplasia at 0.5% administered topically twice daily for 7 days dosed 2 hrs before and 6 hrs after imiquimod administration measured on day 8 by hematoxylin and eosin staining-based histological analysis. It is filed as functional.

The subject of another series is Salmonella typhimurium. Nature of the series: Genotoxicity in Salmonella typhimurium TA100 in presence of aroclor-1254-induced rat S9 fraction by Ames test. The series is classed as toxicity, organism-based. As to conditions: salmonella enterica subsp. enterica serovar typhimurium. In general terms: In the Ames test, an excess of revertant colonies over the control signals mutagenicity.

In series [5] the test system is Mus musculus. Kind of series: In vivo inverse agonist activity at RORgamma in wild type BALB/c ByJ Rj mouse model of imiquimod-induced skin inflammation model assessed as attenuation of imiquimod-induced epidermal hyperplasia at 3% administered topically twice daily for 7 days dosed 2 hrs before and 6 hrs after imiquimod administration measured on day 8 by hematoxylin and eosin staining-based histological analysis. The series is classed as functional.

Series [6] concerns the target T2, Peroxisome proliferator-activated receptor gamma (Homo sapiens, UniProt P37231).
T2 sequence (P37231 whole entry): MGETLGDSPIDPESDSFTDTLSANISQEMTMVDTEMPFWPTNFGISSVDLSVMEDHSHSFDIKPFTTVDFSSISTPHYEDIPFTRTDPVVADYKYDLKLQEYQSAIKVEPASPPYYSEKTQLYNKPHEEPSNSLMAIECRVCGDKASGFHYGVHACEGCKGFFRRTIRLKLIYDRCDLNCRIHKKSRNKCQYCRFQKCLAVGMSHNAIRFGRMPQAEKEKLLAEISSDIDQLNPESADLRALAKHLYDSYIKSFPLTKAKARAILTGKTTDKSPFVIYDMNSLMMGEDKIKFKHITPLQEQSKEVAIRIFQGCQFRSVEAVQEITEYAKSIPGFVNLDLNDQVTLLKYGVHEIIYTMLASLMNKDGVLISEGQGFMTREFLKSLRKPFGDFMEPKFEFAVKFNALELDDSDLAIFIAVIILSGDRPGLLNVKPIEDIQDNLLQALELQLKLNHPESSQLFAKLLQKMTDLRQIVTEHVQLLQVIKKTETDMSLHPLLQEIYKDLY
Description: Activity at PPARgamma (unknown origin) expressed in human HeLa-derived HG5LN cells transfected with the GAL4 DNA-binding domain fused to the PPARgamma ligand-binding domain assessed as inhibition of transcriptional activity after 18 hrs by luminescence-based luciferase reporter gene assay

Usually fraction unbound stands for free concentration divided by total concentration. A lower fraction unbound goes with extensive binding. By IC50 is commonly meant the point on the concentration scale where inhibition reaches its midpoint. As usually defined, the Kd is the equilibrium constant for the complex coming apart. A low value points to a tighter complex. For `CCc1ccc(N(CC(C)C)S(=O)(=O)c2ccc(OCC3CCOCC3)c([S@@](C)(=N)=O)c2)cc1`, in series [1], the fraction unbound at 4 h, 5 µM turned out to be 0.048. Further, the IC50 in series [2] is greater than 10 µM. Also, the Activity entry in the series on TK6 is “Non-Toxic”; in the series with Mus musculus [3] it was “Dose-dependent effect”; with Mus musculus [4] it was 29%; with Salmonella typhimurium, “Non-Toxic”; in the series on Mus musculus [5], 46%. In series [6], this compound yielded a dissociation constant Kd greater than 10 µM.
